# Like-named read-outs stand apart in the source and are kept apart here. No end group written: not given here.
# Assays:
# HEKa cells = assay: In vitro scratch wound closure assay; type: cell-based, human; settings: 10 μg/ml DRGN-1; 20 μM mitomycin C or 0.2 μM AG1478 pretreatment
# Procedure: In vitro scratch wound closure assays: In vitro wound closure was assayed in confluent cell monolayers of HEKa (Invitrogen) as described elsewhere (Kim et al., Amino Acids 46:2333-2343, 2014). Cells were seeded in 6-well plates (Corning, N.Y., USA) and grown until they reached confluence (48 hours) in EpiLife medium supplemented with HKGS. Cells were starved for 18 hours in EpiLife without HKGS and then scratched once vertically with a 200-μl pipette tip to create an artificial wound. For inhibitor studies, mitomycin C (20 μM final) and AG1478 (0.2 μM final) were added 90 minutes and 10 minutes prior to scratch generation. After being washed twice with PBS to remove cellular debris, cells were treated with DRGN-1, VK25 or LL-37. PBS was used as a negative control. Cells were photographed before peptide treatment and 7 hours and 24 hours after peptide treatment using an EVOS® Cell Imaging Systems (Invitrogen). The same image fields were captured and the wound areas were estimated using ImageJ software (Schneider et al., Nat Methods 9:671-675, 2012).
# EGFR = assay: Western blotting, EGFR phosphorylation; type: cell-based, human; settings: 0.2 μM AG1478, 10 minutes preincubation
# Procedure: FIGS. 8A-8F indicate transactivation of the EGFR-STAT pathway by DRGN-1. Subconfluent keratinocytes were starved for 2 hours in HGKS-free medium and then stimulated with 10 μg/ml DRGN-1. For EGFR inhibition, cells were preincubated with 0.2 μM AG1478 for 10 minutes and subsequently treated with 10 μg/ml DRGN-1. The cells were harvested into lysis buffer at the indicated times. The phosphorylation of EGFR (p-EGFR) and STAT3 (p-STAT3) was analyzed by Western blotting (FIGS. 8A, 8B, 8D, and 8E). EGFR indicates total EGFR protein. FIGS. 8C and 8F are graphs plotting densitometric analyses of the expression of phosphoprotein relative to unphosphorylated proteins (pEGFR/EGFR, FIG. 8C; pSTAT3/STAT3, FIG. 8F).
# Western blotting: Semifluent HEKa cells were serum-starved for 3 hours and then stimulated with 10 μg/ml DRGN-1 or HKGS for 5-30 minutes at 37° C. AG1478 (0.2 μM final) was added 10 minutes prior to DRGN-1 or HKGS treatment. Cells were lysed with 2×Laemmli sample buffer (Bio-Rad; Hercules, Calif.) containing 5 mM sodium fluoride and 2 mM sodium vanadate. Cell lysates were separated on a 4-12% SDS-PAGE gel and transferred to polyvinylidene difluoride membrane using an iBlot system (Invitrogen). The membranes were probed with antibodies specific to phospho-EGFR and EGFR (Cell Signaling). […]
# [1] = tested on: P. aeruginosa PAO1 (pTDK-GFP)
# P. aeruginosa ATCC 9027 = settings: ATCC 9027, 3 h, pH 7.4
# [2] = tested on: Gram-negative P. aeruginosa and E. coli and the Gram-positive S. aureus
# [3] = tested on: adult human epidermal keratinocytes (HEKa) cells; assay: MTT assay; type: cell-based; settings: for Toxic effects on metabolically active HEKa cells (MTT): 12.5˜100 μg/ml
# Procedure: MTT assay: The toxic effect of the peptides on adult human epidermal keratinocytes (HEKa) cells was evaluated using the MTT (3-(4,5-dimethylthiazolyl-2)-2,5-diphenyltetrazolium bromide) colorimetric method (Di Grazia et al., Antimicrob Agents Chemother 58:2520-2527, 2014). The color intensity of the MTT is directly proportional to the number of metabolically active cells. Keratinocytes were plated in triplicate wells of a 96-well plate, at 4×10^4 cells/well in EpiLife medium supplemented with HKGS. After overnight incubation at 37° C. in a 5% CO2 atmosphere, the plate was incubated with the peptides at different concentrations for 2 hours, and 0.5 mg/ml of MTT was added. After 4 hours of incubation, formazan crystals were dissolved by adding 100 μl of acidified isopropanol, and the absorbance of each well was measured at 570 nm using a microplate reader (PowerWave X; BioTek, Winooski, Vt.).
# E. coli O157:H7 = settings: 3 hours, 10 mM sodium phosphate buffer pH 7.4
# sheep erythrocytes = assay: Hemolytic activity; type: cell-based; settings: high concentration
# Procedure: FIG. 4 is a graph plotting hemolytic activity of CAMPs. A fresh sheep erythrocyte suspension was incubated with the indicated peptides. Hemoglobin release into the supernatant was measured by absorbance at 567 nm to indicate membrane damage of erythrocytes.
# [4] = tested on: internalized P. aeruginosa ATCC 9027 in HEKa keratinocytes; assay: P. aeruginosa-infected HEKa keratinocytes; type: cell-based, Pseudomonas aeruginosa; settings: 30 μg/ml, 2 hours
# Procedure: Cell infection: Adult human epidermal keratinocytes HEKa (Invitrogen, Carlsbad, Calif.) cells were seeded in 24-well plates (Corning) and grown until they reached confluence (48 h) in EpiLife medium (Thermo Scientific) supplemented with human keratinocyte growth supplements (HKGS) containing 0.2% v/v bovine pituitary extract, 5 μg/ml bovine insulin, 0.18 μg/ml hydrocortisone, 5 μg/ml bovine transferrin, and 0.2 ng/ml human epidermal growth factor (EGF) (Invitrogen). The bacterial strain P. aeruginosa ATCC 9027 was grown in brain heart infusion (BHI) media at 37° C. with mild shaking and then harvested by centrifugation. Bacterial suspension (MOI 10) in EpiLife medium was co-incubated with keratinocytes for 2 hours at 37° C. and 5% CO2. The medium was aspirated and the cells were washed three times with PBS to remove non-adherent bacteria. In order to kill extracellular bacteria, cells were incubated for 1 hour in EpiLife without HKGS supplemented with 100 μg/ml of gentamicin. The medium was then aspirated and the infected cells were washed three times, as described above. Three hundred microliters of peptide solution (30 μg/ml) in EpiLife without HKGS was added to each well and the plate was incubated for 2 hours at 37° C. and 5% CO2. […] The CFU were counted after 24 hours at 37° C.
# P. aeruginosa PAO1 = settings: PAO1, 3 h, pH 7.4
# F. novicida U112 = settings: 3 hours, 10 mM sodium phosphate buffer pH 7.4
# [5] = tested on: S. aureus SH1000 (pAH9-RFP); settings: 3 hours, 10 mM sodium phosphate buffer pH 7.4
# S. aureus ATCC25923 = settings: ATCC25923, 3 h, pH 7.4
# [6] = 3 hours, 10 mM sodium phosphate buffer pH 7.4
Compound,Effect on keratinocyte migration induced by DRGN-1 (HEKa cells),Effect on DRGN-1-induced EGFR phosphorylation (EGFR),"EC50 ([1]; PAO1, 3 h, pH 7.4) [mg/L]",EC50 (P. aeruginosa ATCC 9027) [mg/L],EC50 [2] [µM],"EC50, range over strains [2] [mg/L]",HEKa cell viability (MTT) ([3]; 50˜100 μg/ml),"EC50 [1, 6] [mg/L]",EC50 (E. coli O157:H7) [mg/L],Toxicity against erythrocytes (hemolysis) (sheep erythrocytes),Killing of internalized bacteria [4] [%],EC50 (P. aeruginosa PAO1) [mg/L],EC50 (F. novicida U112) [mg/L],Toxic effects on metabolically active HEKa cells (MTT) [3],EC50 [5] [mg/L],EC50 (S. aureus ATCC25923) [mg/L]
COc1cc2ncnc(Nc3cccc(Cl)c3)c2cc1OC [AG1478],prevented cell migration,not observed in AG1478-treated cells,,,,,,,,,,,,,,
"CC[C@H](C)[C@H](NC(=O)[C@H](CCCCN)NC(=O)[C@H](CCC(=O)O)NC(=O)[C@H](CCCCN)NC(=O)[C@H](CO)NC(=O)[C@H](CCCCN)NC(=O)[C@H](CCCNC(=N)N)NC(=O)[C@H](Cc1ccccc1)NC(=O)[C@H](Cc1ccccc1)NC(=O)[C@H](CC(=O)O)NC(=O)CNC(=O)[C@H](CC(C)C)NC(=O)[C@@H](N)CC(C)C)C(=O)NCC(=O)N[C@@H](CCCCN)C(=O)N[C@@H](CCC(=O)O)C(=O)N[C@@H](Cc1ccccc1)C(=O)N[C@@H](CCCCN)C(=O)N[C@@H](CCCNC(=N)N)C(=O)N[C@H](C(=O)N[C@H](C(=O)N[C@@H](CCC(N)=O)C(=O)N[C@@H](CCCNC(=N)N)C(=O)N[C@H](C(=O)N[C@@H](CCCCN)C(=O)N[C@@H](CC(=O)O)C(=O)N[C@@H](Cc1ccccc1)C(=O)N[C@@H](CC(C)C)C(=O)N[C@@H](CCCNC(=N)N)C(=O)N[C@@H](CC(N)=O)C(=O)N[C@@H](CC(C)C)C(=O)N[C@H](C(=O)N1CCC[C@H]1C(=O)N[C@@H](CCCNC(=N)N)C(=O)N[C@H](C(=O)N[C@@H](CCC(=O)O)C(=O)N[C@@H](CO)C(=O)O)[C@@H](C)O)C(C)C)[C@@H](C)CC)C(C)C)[C@@H](C)CC [LL-37, reference compound]",,,2.69,1.08,0.05 to 0.6,0.24 to 2.7,significant decrease,,,,,,,,,
CO[C@@]12[C@H](COC(N)=O)C3=C(C(=O)C(C)=C(N)C3=O)N1C[C@@H]1N[C@@H]12 [mitomycin C],strongly inhibited,,,,,,,,,,,,,,,
"PSKKTKPVKPKKVA [DRGN-1, PSKKTKPVKPKKVA]",,,,4.39,0.5 to 4.62,0.77 to 7.1,,7.10,3.48,did not show any toxicity,36,6.85,>100,devoid of toxic effects,0.77,4.04
"SPKKTKPVKPKKVA [VK25, SPKKTKPVKPKKVA]",,,,>100,,> 100,,>100,>100,,,>100,>100,devoid of toxic effects,>100,>100

# From patent US10633420B2, “Antimicrobial peptides with wound healing activity” (priority 2016, dated 2020)
